Structures can show the parent of a compound that is named as a salt. Where two headings read alike, the source gives them in different places.
Assays:
[1] = test system: [^3H]imperatorin brain uptake; experiment: Brain uptake index; format: in vivo, rat; settings: 15 s after injection
[2] = test system: [^3H]imperatorin uptake by TR-BBB cells; experiment: Inhibition of [^3H]imperatorin uptake by TR-BBB cells by selected compounds; format: in vitro ADME, rat; settings: compound 1 mM (L-Carnitine: concentration cell empty), 37°C, 5 min
[3] = test system: [^3H]imperatorin brain uptake; format: in vivo, SD rats; settings: compound 1 mM, ICAP 4 ml/min for 15 sec, pH 7.4
hCMEC/D3 cells = settings: ref Kitamura et al., 2014, Sadiq et al., 2011; cited from earlier work
[4] = sucrose; ref Lee and Kang, 2016; cited from earlier work
TR-BBB cells [5] = experiment: Uptake of radiolabelled substrates in siRNA-transfected TR-BBB cells; format: in vitro ADME, rat; settings: 37°C, 5 min
[6] = test system: [^3H]imperatorin uptake by TR-BBB cells; format: in vitro ADME, rat; settings: 37°C, 5 min
[7] = test system: proton coupled antiporter; settings: read-out: in vivo Km; mouse, in situ brain perfusion; ref André et al., 2009; cited from earlier work
[8] = [^3H]imperatorin uptake by TR-BBB cells; format: in vitro ADME, rat; settings: rat, pH 7.4
TR-BBB cells [9] = experiment: [^3H]imperatorin uptake by TR-BBB cells; format: in vitro ADME, rat
P-glycoprotein (P-gp) = settings: ref Lili et al. (2013), cited from earlier work
rat brain = experiment: [^3H]imperatorin brain uptake by internal carotid artery perfusion; format: in vivo, SD rats; settings: ICAP
[10] = format: in vivo, SD rats; settings: for AUC: 60 min; for Uptake: 60 min after IV

## CC[N+](CC)(CC)CC [TEA]
[1]; inhibitor 10 mM
  BUI of [^3H]imperatorin in presence of inhibitor: 48.6 ± 4.5%
[2]
  Relative Uptake (% of Control) of [^3H]imperatorin: 107 ± 10 % of Control
[3]
  Brain volume of distribution (VD, % of Control) of [^3H]imperatorin: 103 ± 5 % of Control

## CN1CCC[C@H]1c1cccnc1 [Nicotine, nicotine]
[1]; inhibitor 10 mM
  BUI of [^3H]imperatorin in presence of inhibitor: 27.6 ± 0.0 %

## CN(C)CCOC(c1ccccc1)c1ccccc1 [Diphenhydramine, diphenhydramine]
hCMEC/D3 cells
  Km: 59 µM

## OC[C@H]1O[C@@](CO)(O[C@H]2O[C@H](CO)[C@@H](O)[C@H](O)[C@H]2O)[C@@H](O)[C@@H]1O [sucrose]
[4]
  BBB PS product: 0.32 ± 0.52 µL/min/g

## Nc1ccc(C(=O)NCC(=O)O)cc1 [PAH]
[1]; inhibitor 10 mM
  BUI of [^3H]imperatorin in presence of inhibitor: 58.5 ± 6.3%
[3]
  Brain volume of distribution (VD, % of Control) of [^3H]imperatorin: 94.4 ± 7.1 % of Control

## C[n+]1ccc(-c2ccccc2)cc1 [MPP+, 1-Methyl-4-phenylpyridinium ion]
TR-BBB cells [5]; rPmat siRNA
  uptake after siRNA transfection: significantly inhibited
[2]
  Relative Uptake (% of Control) of [^3H]imperatorin: 81.3 ± 3.9 % of Control
[3]
  Brain volume of distribution (VD, % of Control) of [^3H]imperatorin: 56.3 ± 5.8 % of Control

## C[N+](C)(C)C[C@H](O)CC(=O)[O-] [L-Carnitine, L-carnitine]
[2]
  Relative Uptake (% of Control) of [^3H]imperatorin: 86.4 ± 5.6 % of Control
[3]
  Brain volume of distribution (VD, % of Control) of [^3H]imperatorin: 79.2 ± 5.3 % of Control

## [Cl-].[K+] [Potassium ion (KCl)]
[6]; sodium replaced by potassium ion (KCl)
  Relative Uptake (% of Control) of [^3H]imperatorin: 97.3 ± 2.3 % of Control

## CNC[C@H](O)[C@@H](O)[C@H](O)[C@H](O)CO [N-Methylglucamine (NMG), N-Methylglucamine]
[6]; Na+ replacement by N-methylglucamine
  Relative Uptake (% of Control) of [^3H]imperatorin: 97.4 ± 6.6 % of Control

## CC(=O)O[C@H](CC(=O)[O-])C[N+](C)(C)C [ALC, acetyl-L-carnitine]
TR-BBB cells [5]; Octn2 siRNA
  uptake after siRNA transfection: significantly inhibited

## COc1cccc(C2(O)CCCCC2CN(C)C)c1 (stereo not shown) [Tramadol, tramadol hydrochloride]
hCMEC/D3 cells
  Km: 49 µM

## carbonyl cyanide-p-trifluorome-thoxyphenylhydrazone [FCCP]
[6]; 10 μM FCCP, pre-incubated 10 min, pH 7.4
  Relative Uptake (% of Control) of [^3H]imperatorin: 56.2 ± 6.3 % of Control

## [N-]=[N+]=[N-].[Na+] [Sodium azide, sodium azide]
[6]; sodium azide 0.1%, pretreatment, pH 7.4
  Relative Uptake (% of Control) of [^3H]imperatorin: 63.8 ± 2.7 % of Control

## Clc1cccc(Cl)c1N=C1NCCN1 [Clonidine, clonidine hydrochloride]
[1]; inhibitor 10 mM
  BUI of [^3H]imperatorin in presence of inhibitor: 33.9 ± 5.5 %
[7]
  Km: 600 µM

## CC(C)=CCOc1c2occc2cc2ccc(=O)oc12 [Imperatorin]
[1]; inhibitor 1 mM
  BUI of [^3H]imperatorin in presence of inhibitor: 24.9 ± 3.4 %
TR-BBB cells [5]; rPmat, rOct 2, rOctn2 or rOctn1 siRNA
  uptake after siRNA transfection: not significantly affected
[8]
  microsomal CLint at 5 min: 17 µL/min/mg
TR-BBB cells [9]; 5 min, pH 7.4
  maximum rate of uptake velocity (Vmax): 2.22 nmol/mg protein/min
TR-BBB cells [9]; at 30 sec, Fig. 4
  y-intersection of time course uptake (cell-to-medium ratio): approximately 140 ul/mg protein
TR-BBB cells [9]; extracellular pH 6.4
  [^3H]Imperatorin uptake compared to control: significantly reduced
TR-BBB cells [9]; extracellular pH 8.4
  [^3H]Imperatorin uptake compared to control: markedly increased
TR-BBB cells [9]; intracellular acidification by pretreatment with NH4Cl
  [^3H]Imperatorin uptake compared to control: increased
TR-BBB cells [9]; pHi alkalized by 30 mM NH4Cl
  [^3H]Imperatorin uptake compared to control: reduced
TR-BBB cells [9]; read-out: Michaelis-Menten constant (Km) of uptake, 5 min, unlabeled imperatorin 0.01∼1 mM, pH 7.4
  Km: 59 µM
P-glycoprotein (P-gp); P-gp inhibition
  IC50: > 90 µM
P-glycoprotein (P-gp); larger than 3.0 = substrate of P-gp
  efflux ratio: 0.5
Rat brain; carbonate-free HEPES
  Brain transport compared with control: markedly decreased
Rat brain; imperatorin 0–1 mM, pH 7.4
  Vmax of brain influx: 0.50 µmol/min/g
Rat brain; mannitol Na+-free buffer
  Brain transport compared with control: significantly increased
Rat brain; nonlinear regression
  Kd (unsaturated component, passive diffusion): 3.1e-17 µL/min/g
Rat brain; read-out: apparent Km of brain influx, imperatorin 0–1 mM, pH 7.4
  Km: 180 µM
[10]; IV injection, rat brain
  Brain VD relative to [^14C]sucrose: about 6 fold
[10]; IV injection, sucrose value from Lee and Kang, 2016
  BBB PS product relative to sucrose: 12 fold
[10]; IV injection, sucrose value from Wu and Pardridge, 1999
  BBB PS product relative to sucrose: 20 fold
[10]; SD rats, single IV, plasma
  AUCss: 38.2 ± 1.5 % ID min/mL
  AUC: 22.1 ± 0.8 % ID min/mL
[10]; SD rats, single IV, plasma, listed as [^3H]imperatorin
  AUC: 22 ± 1 % ID min/mL
[10]; brain, SD rats
  Uptake: 0.086 ± 0.008 %ID/g
[10]; heart, SD rats
  Uptake: 1.62 ± 0.10 %ID/g
[10]; kidney, SD rats
  Uptake: 3.70 ± 0.33 %ID/g
[10]; liver, SD rats
  Uptake: 1.21 ± 0.08 %ID/g
[10]; lung, SD rats
  Uptake: 1.68 ± 0.03 %ID/g

Reference: article PMC5499624 (Biomolecules & Therapeutics, 2017)
